Experiments:
[1] = tested on: female 129S6/SvEv mice; test: Forced swim test after 10-day chronic immobilization stress (CIS); assay type: in vivo, mouse; conditions: 10 mg/kg, 1 week prophylactic drug
Description: The CIS procedure induces a depressive-like phenotype in test subjects and has both predictive and face validity (54). Here, we used an adapted protocol from Ramirez et al. (55).
As previously tested in male mice (18), we validated our findings in a model of chronic stress. […] Drug dosages were chosen based on results from FIG. 1 and used for the remainder of the project unless otherwise specified. One week later, a 10-day CIS protocol was administered. Subsequently, mice were tested in the FST.

[2] = tested on: female 129S6/SvEv mice; test: Elevated plus maze (EPM); assay type: in vivo, mouse; conditions: 10 mg/kg, 1 week prophylactic drug, learned helplessness stress
Description: The EPM was administered as previously described (58), with the exception that videos were scored using ANY-maze behavioral tracking software (Stoelting Co., Wood Dale, Ill.).
We have previously shown that prophylactic (R,S)-ketamine attenuates helpless behavior in male mice (18). To validate these findings in females, female mice were administered saline, (R,S)-ketamine, or (2R,6R)-HNK one week prior to LH training (FIG. 4A). Two weeks later, mice were tested for escape latency and for depressive- and anxiety-like behaviors in the FST and elevated plus maze (EPM). CFC was again administered following these behavioral assays.

[3] = tested on: female 129S6/SvEv mice; test: Contextual fear conditioning (CFC), 3-shock, freezing in training and context re-exposure; conditions: for p, Sal vs. drug, Dunnett test: Freezing (Average), Contextual Fear Conditioning Re-exposure / p, Freezing (min 1-5) / p, Freezing (min 2) / p, Freezing (min 3) / p, Freezing (min 4) / p, Freezing (min 5): 1 week prophylactic drug; for Freezing during 3-shock CFC training vs saline: 2.5, 10, or 30 mg/kg, 1 week before CFC; for p, Freezing (min 1-5) / p, Freezing (min 2) / p, Freezing (min 3) / p, Freezing (min 4) / p, Freezing (min 5): Contextual Fear Conditioning Re-exposure
[4] = Dunnett test Sal vs. drug (2.5)

## CNC1(c2ccccc2Cl)CCCCC1=O (racemic) [(R,S)-ketamine, (RS)-2-(2-chlorophenyl)-2-(methylamino)cyclohexanone]
[1]
  * (significance), Sal vs. drug, Fisher's PLSD: Immobility Time (min 2), Forced Swim Test Day 2: * (* p<0.05)
  * (significance), Sal vs. drug, Fisher's PLSD: Immobility Time (min 5), Forced Swim Test Day 2: ** (** p<0.01)
  * (significance), Sal vs. drug, Fisher's PLSD: Immobility Time (min 6), Forced Swim Test Day 1: ** (** p<0.01)
  * (significance), Sal vs. drug, Fisher's PLSD: Immobility Time (min 6), Forced Swim Test Day 2: ** (** p<0.01)
  * (significance), Sal vs. drug, Fisher's PLSD: Immobility Time Average (min 3-6), Forced Swim Test Day 2: ** (** p<0.01)
  p, Sal vs. drug, Fisher's PLSD: Immobility Time (min 1), Forced Swim Test Day 1: 0.1619
  p, Sal vs. drug, Fisher's PLSD: Immobility Time (min 1), Forced Swim Test Day 2: 0.0533
  p, Sal vs. drug, Fisher's PLSD: Immobility Time (min 2), Forced Swim Test Day 1: 0.4051
  p, Sal vs. drug, Fisher's PLSD: Immobility Time (min 2), Forced Swim Test Day 2: 0.0325
  p, Sal vs. drug, Fisher's PLSD: Immobility Time (min 3), Forced Swim Test Day 1: 0.5575
  p, Sal vs. drug, Fisher's PLSD: Immobility Time (min 4), Forced Swim Test Day 1: 0.4015
  p, Sal vs. drug, Fisher's PLSD: Immobility Time (min 5), Forced Swim Test Day 1: 0.4985
  p, Sal vs. drug, Fisher's PLSD: Immobility Time (min 5), Forced Swim Test Day 2: 0.0011
  p, Sal vs. drug, Fisher's PLSD: Immobility Time (min 6), Forced Swim Test Day 1: 0.0022
  p, Sal vs. drug, Fisher's PLSD: Immobility Time (min 6), Forced Swim Test Day 2: 0.0006
  p, Sal vs. drug, Fisher's PLSD: Immobility Time Average (min 3-6), Forced Swim Test Day 2: 0.0005
  p, Sal vs. drug, Fishers PLSD: Immobility Time Average (min 1-6), Forced Swim Test Day 1: 0.1873
[2]
  * (significance), Sal vs. drug, Fisher's PLSD: Time in Closed Arms Average (min 1-6), Elevated Plus Maze: * (* p<0.05)
  * (significance), Sal vs. drug, Fisher's PLSD: Time in Open Arms Average (min 1-6), Elevated Plus Maze: * (* p<0.05)
  P, Sal vs. drug, Fisher's PLSD: Time in Closed Arms Average (min 1-6), Elevated Plus Maze: 0.0186
  P, Sal vs. drug, Fisher's PLSD: Time in Open Arms Average (min 1-6), Elevated Plus Maze: 0.0147
[3]; 2.5 mg/kg
  p, Sal vs. drug, Dunnett test: Freezing (Average), Contextual Fear Conditioning Re-exposure: 0.7546
[3]; 10 mg/kg
  p, Sal vs. drug, Dunnett test: Freezing (Average), Contextual Fear Conditioning Re-exposure: 0.8986
[3]; 30 mg/kg
  p, Sal vs. drug, Dunnett test: Freezing (Average), Contextual Fear Conditioning Re-exposure: 0.8647
[3]; female mice
  Freezing during 3-shock CFC training vs saline: did not alter freezing
[3]; female mice, listed as (R, S)-ketamine
  Freezing during 3-shock CFC training vs saline: did not alter fear encoding
[3]; 2.5 and 10 mg/kg, 3 days before CFC, female mice
  Freezing during CFC training vs saline: significantly increased freezing compared to saline
[3]; 2.5 and 10 mg/kg, 3 days before CFC, female mice; listed as R,S)-ketamine
  Freezing during CFC training vs saline: significantly increased freezing during the last minute
[3]; 3 days before CFC, female mice
  Freezing during context re-exposure vs saline: do not affect freezing during re-exposure
[3]; [4]
  p, Freezing (min 1-5): 0.7546
  p, Freezing (min 2): 0.9996
  p, Freezing (min 3): 0.6267
  p, Freezing (min 4): 0.1951
  p, Freezing (min 5): 0.4912
[3]; Dunnett test Sal vs. drug (10)
  p, Freezing (min 1-5): 0.8986
  p, Freezing (min 2): 0.9240
  p, Freezing (min 3): 0.9864
  p, Freezing (min 4): 0.6904
  p, Freezing (min 5): 0.6667
[3]; Dunnett test Sal vs. drug (30)
  p, Freezing (min 1-5): 0.8647
  p, Freezing (min 2): 0.6079
  p, Freezing (min 3): 0.8139
  p, Freezing (min 4): 0.9885
  p, Freezing (min 5): 0.9996

From patent US11491120B2, “Pharmacological prophylactics against stress-induced affective disorders in females” (The Trustees of Columbia University in the City of New York, priority 2017, dated 2022)
